From patent publication US9371527B2, “Compositions and methods related to protein displacement therapy for myotonic distrophy” (University of Rochester, priority 2006, dated 2016)
“Also recorded” adds a separate entry of the source.

Legend:
[1] = test system: ClC-1 exon 7a; test: RT-PCR of ClC-1 exon 7a splicing after ClC-1 antisense morpholino, HSA^LR mice; type: in vivo; details: TA muscle; for comparison of exon 7a skipping between antisense morpholinos: 3 weeks, 20 μg total
Experimental: FIGS. 21A, 21B, 21C, and 21D show the effects of antisense morpholino targeting the 3′ splice junction of ClC-1 exon 7a on splicing and myotonia in HSA^LR transgenic mice. Antisense morpholino targeting the 3′ splice junction of ClC-1 exon 7a was injected into tibialis anterior muscle of HSA^LR mice under general anesthesia (sequence 5′-[…]-3′ (SEQ ID NO: 4)). The contralateral muscle was injected with morpholino having the inverted sequence (5′-[…]-3′(SEQ ID NO: 5)). Uptake into muscle fibers was enhanced by in vivo electroporation. The determination of which side received the antisense morpholino was randomized. 21 days later, myotonia was evaluated by electromyography and muscle was harvested for RT-PCR analysis of ClC-1 alternative splicing. Electromyography was blinded to the randomization.
HSA^LR (Mankodi, A., et al. (2000) Science 289:1769-1773) or Mbnl1^ΔE3/ΔE3 mice (Kanadia, R. N., et al. (2003) Science 302:1978-1980) were anesthetized by intraperitoneal injection of 100 mg/kg ketamine, 10 mg/kg xylazine, and 3 mg/kg acepromazine. TA muscle was pretreated by intramuscular injection of bovine hyaluronidase (15 μl, 0.4 U/μl) (Sigma) (McMahon, J. M., et al. (2001) Gene Ther 8:1264-1270). Two hours later, 10 or 20 μg of morpholino in a total volume of 20 μl phosphate buffered saline (PBS) was injected using a 30-gauge needle. TA muscle was then electroporated using electrodes placed parallel to the long axis of the muscle. Electroporation parameters were 100 V/cm, 10 pulses at 1 Hz, and 20 ms duration per pulse. Antisense or control morpholino with inverted sequence was injected into TA muscles of opposite limbs. The determination of which TA received antisense morpholino was randomized, and investigators remained blinded to this assignment until EMG analyses were completed. Other analyses were performed without blinding. For experiments to determine the distribution of injected oligos, the antisense morpholino was labeled with carboxyfluorescein and cryosections of muscle (10 μM) were examined by fluorescence microscopy, with or without fixation in 4% paraformaldehyde. Some sections were co-labeled with TRITC-wheat germ agglutinin (Parsons, S. A., et al. (2003) Mol Cell Biol 23:4331-4343) (50 μg/ml in PBS; Sigma) and 4′,6-diamidino-2-phenylindole (DAPI) to highlight the surface membranes and nuclei of muscle fibers.
Mice were sacrificed three or eight weeks after morpholino injection. TA muscles were removed and frozen in liquid nitrogen. Total RNA was isolated with TriReagent (Molecular Research Center). cDNA synthesis was primed with oligo dT as described previously (Mankodi, A., et al. (2002) Mol Cell 10:35-44). Assays for alternative splicing of ClC-1 and Titin were described previously (Mankodi, A., et al. (2002) Mol Cell 10:35-44; Lin, X., et al. (2006) Hum Mol Genet 15:2087-2097). Primer sequences were
(§1) RT-PCR products (22 cycles) were separated on agarose gels, stained with SYBR green II, and scanned on a laser fluorimager (Molecular Dynamics). Band intensity was quantified using ImageQuant software. Total levels of ClC-1 mRNA were determined by quantitative real-time RT-PCR (Taqman, Applied Biosystems) relative to housekeeping gene RNA polymerase II transcription factor IIB.

[2] = test system: ClC-1 mRNA; test: Quantitative real time RT-PCR of ClC-1 mRNA level; type: in vivo, HSA^LR mice; details: 3 weeks after treatment, relative to RNA polymerase II transcription factor IIB
Source text: HSA^LR and WT mice have the same (FVB) inbred strain background. […] FIGS. 25D and 25E show the percentage of ClC-1 splice products that include exon 7a is shown at 3 (D) and 8 (E) weeks following morpholino injection. Mean±s.d.; n=3 per group; **P<0.001; *P=0.035 antisense- versus invert-treated controls; t-test. […] ClC-1 mRNA level is expressed in arbitrary units relative to housekeeping gene RNA polymerase II transcription factor IIB. Mean±s.d.; n=3 per group; *P=0.06 for antisense vs invert-treated control; t-test.
as §1

[3] = test system: Mbnl1^ΔE3/ΔE3 mice; test: Electromyography of myotonia, Mbnl1^ΔE3/ΔE3 mice; type: in vivo; details: TA muscle, 3 weeks
Experimental: FIGS. 27A, 27B, 27C, 27D, and 27E show antisense morpholino represses exon 7a inclusion, restores ClC-1 protein expression, and rescues myotonia in Mbnl1^ΔE3/ΔE3 mice. […] Bar=20 μM. […] Mean±s.d.; n=3 per group; **P<0.0001 antisense- versus invert-treated control; ANOVA.
EMG was performed under general anesthesia as described previously (Kanadia, R. N., et al. (2003) Science 302:1978-1980). Images and video recordings of electromyographic myotonia in HSA^LR and Mbnl1^ΔE3/ΔE3 mice are shown in previous reports (Kanadia, R. N., et al. (2003) Science 302:1978-1980; Mankodi, A., et al. (2000) Science 289:1769-1773). A minimum of 15 needle insertions were performed for each muscle examined Myotonic discharges were graded on a 4 point scale: 0, no myotonia; 1, occasional myotonic discharge in <50% of needle insertions; 2, myotonic discharge in >50% of needle insertions; 3: myotonic discharge with nearly every insertion.

## antisense 1: morpholino 5′-CCAGGCACGGTCTGCAACAGAGAAG-3′ targeting the 3′ splice site of ClC-1 exon 7a (all phosphorodiamidate morpholino (PMO))
[1]; 3 weeks (21 days) after single injection + electroporation, listed as antisense morpholino
  ClC-1 exon 7a inclusion: significant reduction of exon 7a inclusion; also recorded: suppressed to wild type (WT) levels
[1]
  comparison of exon 7a skipping between antisense morpholinos: higher level of exon 7a skipping
[1]; listed as AON targeting the 3′ splice site
  comparison of exon 7a skipping between antisense morpholinos: more effective than targeting the 5′ splice site alone
[1]; 8 weeks after injection, 20 μg
  ClC-1 exon 7a inclusion: remained partially suppressed
[1]; 8 weeks after injection, 20 μg, listed as antisense morpholino
  ClC-1 exon 7a inclusion: partial exclusion of exon 7a
[1]; 21 days
  fraction of splice products encoding functional ClC-1 channels (band 1): increases the fraction of splice products encoding functional ClC-1 channels
[2]; listed as antisense morpholino
  level of ClC-1 mRNA: increased levels of ClC-1 mRNA
[3]; listed as antisense morpholino
  myotonia (EMG): reduced the myotonia

## control morpholino: control morpholino 5′-GAAGAGACAACGTCTGGCACGGACC-3′, the 5′-3′ invert of the 3′ splice site blocker (all phosphorodiamidate morpholino (PMO)) [reference compound]
[1]; 3 weeks (21 days) after single injection + electroporation
  ClC-1 exon 7a inclusion: no effect on ClC-1 splicing; also recorded: not different from untreated HSA^LR muscle
[2]
  level of ClC-1 mRNA: not control morpholino with inverted sequence
[3]
  myotonia (EMG): not in muscle treated with invert control
